Columns and labels:
[1] = system: p53-responsive PG-luciferase reporter in Saos-2-His-273 cells; experiment: PG-luciferase p53 reporter assay in Saos-2-His-273; format: cell-based, human
Method: Transactivation assays using p53-responsive promoter constructs linked to the luciferase reporter gene (PG-luc) were performed by the Dual Luciferase Reporter Assay System (Promega) according to the manufacturer. […] A luciferase activity was assayed 1; 3.5 and 15 hours post-treatment.
Whereas compound MIRA-1 stimulated luciferase expression 2-fold already after 3.5 hours, 2-fold induction by compound PRIMA-I was achieved only after 15 hours of treatment.

[2] = molecular target: T1, GST-wild type p53 protein (Homo sapiens, UniProt P04637); experiment: ELISA of p53 conformation epitopes (PAb1620, PAb240, DO-1), recombinant protein; format: biochemical; conditions: for appearance of PAb240 epitope (unfolding) upon heating: heating at 37° C.; for preservation of PAb 1620 epitope upon heating: recombinant wild type and mutant p53 proteins, 30 min at 37° C.
T1 construct: made in house
Method: Absorbance of the control sample incubated on ice was taken as 100%.
The procedure was performed with or without tested compounds. The ELISA analyses were done as described by (Foster et al., 1999). Briefly, after the treatment, samples were diluted with coating buffer (150 mM KCL, 25 mM HEPES) supplemented with 10 mM DTT. The whole mixture was apply to ELISA plates (MaxiSorp, Nunc) and incubated at +4° C. for 35 min. The wells were washed with coating buffer. The wells were blocked by 5% skim milk in PBS by incubating at +4° C. for 1 h. Wells were rinsed twice with PBS followed by addition of mouse primary antibodies (PAb 1620 or PAb 240) diluted 1:250 in coating buffer. Samples were incubated at +4° C. for 30 min. Wells were rinsed twice with PBS. After that, a secondary antibody (anti-mouse, conjugated with horse radish peroxidase) was incubated with samples at +4° C. for 30 min. Then plates were washed 5 times with PBS and a peroxidase substrate was added. An absorbance at λ405 nm was monitored by ELISA reader.

[3] = molecular target: T2, endogenous mutant p53 proteins (Homo sapiens, UniProt P04637, C176F); format: biochemical; conditions: KRC/Y cell extract
T2 construct: cellular extracts of human tumor cell lines carrying different p53 mutants as a source for endogenous p53 protein; endogenous in cells; host or cells: human tumour cell lines (e.g. Burkitt lymphoma BL-60; KRC/Y renal carcinoma)
Method: (§1) PAb421 antibody was added to all reaction mixtures. […] Monoclonal antibody PAb421 was added to the reaction mixtures in lanes 2-8; PAb1801 was added to the reaction mixtures in lanes 9-15.
(§2) The GST-p53 proteins were prepared as described (Selivanova et al., 1997). Band shift assays were performed in binding buffer containing 100 mM HEPES pH 7.5, 50 mM KCl, 1 mg/ml BSA, 0.1% Triton X-100, 2 mM MgC12 and 1 mM DTT essentially as in (Selivanova et al., 1996).

[4] = molecular target: T3, endogenous mutant p53 proteins (Homo sapiens, UniProt P04637, R282W); format: biochemical; conditions: cell extracts from Burkitt lymphoma BL-60 cells
T3 construct: cellular extracts of human tumor cell lines carrying different p53 mutants as a source for endogenous p53 protein; endogenous in cells; host or cells: human tumour cell lines (e.g. Burkitt lymphoma BL-60; KRC/Y renal carcinoma)
Method: as §1, §2

[5] = molecular target: T4, GST-His-175 mutant p53 protein (Homo sapiens, UniProt P04637, R175H); experiment: Band shift assay, GST-His-175 mutant p53; format: biochemical
T4 construct: made in house
Method: as §1, §2

[6] = system: MDM2 and p21 in HCT 116 colon carcinoma cells (wild type p53); experiment: Western blot of MDM2 and p21, HCT 116; format: cell-based, human
[7] = system: Saos-2 cells lacking p53; experiment: Colony formation assay, Saos-2 lacking p53; format: cell-based, human; conditions: 5 μM, colonies counted after 14 days
From the text: Colonies were stained with Giemsa and counted 14 days after seeding.
The cells were Giemsa stained and scored for the appearance of colonies after 14 days.

[8] = system: p21 and MDM2 in H1299-His-175 cells; experiment: Western blot of p53 target genes p21 and MDM2, H1299-His-175; format: cell-based, human
[9] = molecular target: T1, GST-wild type p53 protein; experiment: Band shift assay, heat-inactivated GST-wild type p53; format: biochemical; conditions: protein inactivated at 37° C. for 30 min
Method: Lane 3, inactivation of DNA binding of wtp53 by heating.
as §2
Therefore, the restoration of the DNA binding of this mutant was regarded as an exceptionally difficult task.

[10] = system: p53-responsive lacZ reporter in A431 cells (endogenous His-273 mutant p53); experiment: p53-responsive lacZ reporter in A431 cells; format: cell-based, human; conditions: 50 μM for 20 hours
[11] = Toxicity assessment in SCID mice; format: in vivo
Method: (§3) All animal studies were approved by the local animal ethical committee and animal care was in accordance with institutional guidelines. For toxicity assessment, 12 SCID mice (average weight 25 g) were divided in 4 groups. […] Control animals were injected with PBS. We measured weights of the mice for 1 month after the last injection. […] After 3 days the mice were divided into 4 groups. […] Injections were performed twice daily for 3 days. Tumour volume was measured during 2 months.
(§4) In the untreated control group, the average tumour volume after 59 days was 555.7±284 mm3 (means±SE, n=3).

[12] = system: Saos-2-His-273 human tumour xenografts; experiment: Anti-tumour activity, Saos-2-His-273 xenograft in SCID mice; format: in vivo; conditions: after 59 days
Method: SCID mice were injected with Saos-2-His-273 cells. […] Tumour volumes were measured once in three days for two months.
as §3, §4

[13] = recombinant protein treated with compound
[14] = absence of mutant p53 expression
[15] = cells expressing mutant p53, PRIMA-1 25 μM, MIRA-1 10 μM

| SMILES | appearance of PAb240 epitope (unfolding) upon heating [2] | increase in PAb1620+ fraction [2, 13] | reduction in PAb240+ fraction [2, 13] | preservation of PAb 1620 epitope upon heating [2] | MDM2 and p21 protein levels [6] | induction of MDM2 and p21 [8, 14] | induction of MDM2 and p21 [8, 15] | restoration of specific DNA binding after heat inactivation [9] | further results |
| --- | --- | --- | --- | --- | --- | --- | --- | --- | --- |
| CCCOCN1C(=O)C=CC1=O [MIRA-1, 1-(propoxymethyl)-maleimide] | able to prevent unfolding of p53 proteins | About 40% | −20% | preserve the conformation-dependent epitope for PAb 1620 antibody | did not cause any significant changes | did not cause any induction of MDM2 nor p21 | solid induction of both MDM2 and p21 | able to restore the specific DNA binding of the GST-wild type p53 protein | stimulation of luciferase expression ([1]; after 3.5 hours): 2 fold; reactivation of Phe-176 mutant DNA binding [3]: not reactivated; restoration of DNA binding of Trp-282 mutant p53 [4]: able to restore the sequence-specific DNA binding of the endogenous Trp-282 mutant p53; restoration of specific DNA binding [5]: able to restore the specific DNA binding of the GST-His-175 mutant p53 protein; inhibition of colony formation [7]: 48% |
| O=C1C2CCN(CC2)C1(CO)CO [PRIMA-1, 2,2-bis(hydroxymethyl)-1-azabicyclo[2.2.2]octan-3-one] | able to prevent unfolding of p53 proteins | 40% | corresponding decrease | preserve the conformation-dependent epitope for PAb 1620 antibody | did not cause any significant changes | did not cause any induction of MDM2 nor p21 | solid induction of both MDM2 and p21 | able to restore the specific DNA binding of the GST-wild type p53 protein | induction of luciferase expression ([1]; after 15 hours of treatment): 2 fold; DO-1+ fraction [2, 13]: remained unchanged; lacZ reporter induction [10]: appearance of lacZ-positive cells; average weight of mice ([11]; 100 mg/kg i.v. daily for 5 days, after one month of observation): 20 ± 0.2 g; changes in behavior or weight ([11]; intravenous injections, compared with untreated control): did not cause any obvious changes in behavior or weight; average tumour volume ([12]; 20 mg/kg i.v. twice a day for three days): 53±48.5 mm3; average tumour volume ([12]; intratumour 20 mg/kg twice a day for three days): 5.3±2.7 mm3; average tumour volume ([12]; intravenous 100 mg/kg twice a day for three days): 11.7±8 mm3 |
